Laboratory results taken from PMC6688997 (Nature Communications, 2019).

Assays:
Test in all cases: Kinase assay, 1 mM ATP
Type in all cases: biochemical
JNK1 = JNK1 (Homo sapiens, UniProt P45983)
Summary of the method: (§1)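 IC50 values come from four-parameter logistic regression of inhibition data obtained in an off-chip mobility shift kinase assay.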

HIPK4 = HIPK4 (Homo sapiens, UniProt Q8NE63)
Summary of the method: as §1

KDR = target: T1, KDR (Homo sapiens, UniProt P35968)
T1 construct: purchased Carna Biosciences
Summary of the method: as §1

RET(S891A) = target: T2, RET(S891A) (Homo sapiens, UniProt P07949, S891A)
T2 construct: purchased Carna Biosciences
Summary of the method: as §1

DYRK1A = DYRK1A (Homo sapiens, UniProt Q13627)
Summary of the method: as §1

PKD2 = target: T3, PKD2 (Homo sapiens, UniProt Q9BZL6)
T3 construct: purchased Carna Biosciences
Summary of the method: as §1

RSK1 = target: T4, RSK1 (Homo sapiens, UniProt Q15418)
T4 construct: purchased Carna Biosciences
Summary of the method: as §1

FGFR1 = target: T5, FGFR1 (Homo sapiens, UniProt P11362)
T5 construct: purchased Carna Biosciences
Summary of the method: as §1

EPHA3 = EPHA3 (Homo sapiens, UniProt P29320)
Summary of the method: as §1

CDK6/CycD3 = CDK6/CycD3 (Homo sapiens, UniProt Q00534)
Summary of the method: as §1

SIK = target: T6, SIK (Homo sapiens, UniProt P57059)
T6 construct: purchased Carna Biosciences
Summary of the method: as §1

QIK = QIK (Homo sapiens, UniProt Q9H0K1)
Summary of the method: as §1

CDK3/CycE1 = CDK3/CycE1 (Homo sapiens, UniProt Q00526)
Summary of the method: as §1

EPHB3 = EPHB3 (Homo sapiens, UniProt P54753)
Summary of the method: as §1

PDGFRβ = target: T7, PDGFRβ (Homo sapiens, UniProt P09619)
T7 construct: purchased Carna Biosciences
Summary of the method: as §1

AurC = target: T8, AurC (Homo sapiens, UniProt Q9UQB9)
T8 construct: purchased Carna Biosciences
Summary of the method: as §1

MET = target: T9, MET (Homo sapiens, UniProt P08581)
T9 construct: purchased Carna Biosciences
Summary of the method: as §1

CDK9/CycT1 = CDK9/CycT1 (Homo sapiens, UniProt P50750)
Summary of the method: as §1

TNK1 = target: T10, TNK1 (Homo sapiens, UniProt Q13470)
T10 construct: purchased Carna Biosciences
Summary of the method: as §1

ARG = ARG (Homo sapiens, UniProt P42684)
Summary of the method: as §1

EPHA6 = EPHA6 (Homo sapiens, UniProt Q9UF33)
Summary of the method: as §1

EPHA7 = EPHA7 (Homo sapiens, UniProt Q15375)
Summary of the method: as §1

skMLCK = skMLCK (Homo sapiens, UniProt Q9H1R3)
Summary of the method: as §1

DYRK1B = DYRK1B (Homo sapiens, UniProt Q9Y463)
Summary of the method: as §1

SRM = target: T11, SRM (Homo sapiens, UniProt Q9H3Y6)
T11 construct: purchased Carna Biosciences
Summary of the method: as §1

LCK = LCK (Homo sapiens, UniProt P06239)
Summary of the method: as §1

EGFR(d746-750/T790M) = target: T12, EGFR(d746-750/T790M) (Homo sapiens, UniProt P00533, DEL746-750/T790M)
T12 construct: purchased Carna Biosciences
Summary of the method: as §1

MINK = target: T13, MINK (Homo sapiens, UniProt Q8N4C8)
T13 construct: purchased Carna Biosciences
Summary of the method: as §1

EPHA4 = target: T14, EPHA4 (Homo sapiens, UniProt P54764)
T14 construct: purchased Carna Biosciences
Summary of the method: as §1

YES = YES (Homo sapiens, UniProt P07947)
Summary of the method: as §1

PKACα = PKACα (Homo sapiens, UniProt P17612)
Summary of the method: as §1

PKCα = PKCα (Homo sapiens, UniProt P17252)
Summary of the method: as §1

FRK = target: T15, FRK (Homo sapiens, UniProt P42685)
T15 construct: purchased Carna Biosciences
Summary of the method: as §1

BTK = BTK (Homo sapiens, UniProt Q06187)
Summary of the method: as §1

FGFR4 = FGFR4 (Homo sapiens, UniProt P22455)
Summary of the method: as §1

HGK = target: T16, HGK (Homo sapiens, UniProt O95819)
T16 construct: purchased Carna Biosciences
Summary of the method: as §1

CLK1 = CLK1 (Homo sapiens, UniProt P49759)
Summary of the method: as §1

JNK2 = JNK2 (Homo sapiens, UniProt P45984)
Summary of the method: as §1

LYNb = target: T17, LYNb (Homo sapiens, UniProt P07948)
T17 construct: purchased Carna Biosciences
Summary of the method: as §1

IRR = target: T18, IRR (Homo sapiens, UniProt P14616)
T18 construct: purchased Carna Biosciences
Summary of the method: as §1

BMX = target: T19, BMX (Homo sapiens, UniProt P51813)
T19 construct: purchased Carna Biosciences
Summary of the method: as §1

FGFR3 = target: T20, FGFR3 (Homo sapiens, UniProt P22607)
T20 construct: purchased Carna Biosciences
Summary of the method: as §1

T17 sequence (P07948 1-491 isoform P07948-2): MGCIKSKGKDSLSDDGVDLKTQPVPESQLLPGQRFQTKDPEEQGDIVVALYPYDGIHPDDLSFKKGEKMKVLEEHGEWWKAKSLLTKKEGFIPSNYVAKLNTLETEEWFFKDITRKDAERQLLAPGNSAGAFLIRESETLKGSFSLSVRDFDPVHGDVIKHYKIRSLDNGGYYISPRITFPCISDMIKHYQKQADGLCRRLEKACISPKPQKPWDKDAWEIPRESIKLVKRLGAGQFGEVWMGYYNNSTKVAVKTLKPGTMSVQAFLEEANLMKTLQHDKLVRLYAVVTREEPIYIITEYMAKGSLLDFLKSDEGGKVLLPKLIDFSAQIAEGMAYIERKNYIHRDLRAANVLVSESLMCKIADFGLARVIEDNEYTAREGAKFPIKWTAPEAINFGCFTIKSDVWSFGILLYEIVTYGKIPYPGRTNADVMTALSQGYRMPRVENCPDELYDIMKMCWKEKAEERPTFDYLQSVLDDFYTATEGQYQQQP
YES, sequence (P07947 whole entry): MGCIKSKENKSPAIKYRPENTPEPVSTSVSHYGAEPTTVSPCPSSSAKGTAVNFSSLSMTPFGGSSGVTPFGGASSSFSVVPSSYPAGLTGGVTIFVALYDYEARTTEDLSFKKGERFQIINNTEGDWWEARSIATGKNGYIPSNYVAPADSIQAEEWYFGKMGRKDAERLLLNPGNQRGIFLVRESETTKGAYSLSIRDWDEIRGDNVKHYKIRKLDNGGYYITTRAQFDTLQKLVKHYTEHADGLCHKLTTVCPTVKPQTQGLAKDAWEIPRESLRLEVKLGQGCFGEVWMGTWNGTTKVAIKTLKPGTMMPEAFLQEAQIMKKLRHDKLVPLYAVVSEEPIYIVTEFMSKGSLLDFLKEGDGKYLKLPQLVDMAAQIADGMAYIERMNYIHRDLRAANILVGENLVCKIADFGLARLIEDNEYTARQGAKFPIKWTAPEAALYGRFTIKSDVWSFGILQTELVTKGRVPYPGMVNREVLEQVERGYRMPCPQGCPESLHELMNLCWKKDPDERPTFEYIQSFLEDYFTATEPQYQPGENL
T18 sequence (P14616 27-1297): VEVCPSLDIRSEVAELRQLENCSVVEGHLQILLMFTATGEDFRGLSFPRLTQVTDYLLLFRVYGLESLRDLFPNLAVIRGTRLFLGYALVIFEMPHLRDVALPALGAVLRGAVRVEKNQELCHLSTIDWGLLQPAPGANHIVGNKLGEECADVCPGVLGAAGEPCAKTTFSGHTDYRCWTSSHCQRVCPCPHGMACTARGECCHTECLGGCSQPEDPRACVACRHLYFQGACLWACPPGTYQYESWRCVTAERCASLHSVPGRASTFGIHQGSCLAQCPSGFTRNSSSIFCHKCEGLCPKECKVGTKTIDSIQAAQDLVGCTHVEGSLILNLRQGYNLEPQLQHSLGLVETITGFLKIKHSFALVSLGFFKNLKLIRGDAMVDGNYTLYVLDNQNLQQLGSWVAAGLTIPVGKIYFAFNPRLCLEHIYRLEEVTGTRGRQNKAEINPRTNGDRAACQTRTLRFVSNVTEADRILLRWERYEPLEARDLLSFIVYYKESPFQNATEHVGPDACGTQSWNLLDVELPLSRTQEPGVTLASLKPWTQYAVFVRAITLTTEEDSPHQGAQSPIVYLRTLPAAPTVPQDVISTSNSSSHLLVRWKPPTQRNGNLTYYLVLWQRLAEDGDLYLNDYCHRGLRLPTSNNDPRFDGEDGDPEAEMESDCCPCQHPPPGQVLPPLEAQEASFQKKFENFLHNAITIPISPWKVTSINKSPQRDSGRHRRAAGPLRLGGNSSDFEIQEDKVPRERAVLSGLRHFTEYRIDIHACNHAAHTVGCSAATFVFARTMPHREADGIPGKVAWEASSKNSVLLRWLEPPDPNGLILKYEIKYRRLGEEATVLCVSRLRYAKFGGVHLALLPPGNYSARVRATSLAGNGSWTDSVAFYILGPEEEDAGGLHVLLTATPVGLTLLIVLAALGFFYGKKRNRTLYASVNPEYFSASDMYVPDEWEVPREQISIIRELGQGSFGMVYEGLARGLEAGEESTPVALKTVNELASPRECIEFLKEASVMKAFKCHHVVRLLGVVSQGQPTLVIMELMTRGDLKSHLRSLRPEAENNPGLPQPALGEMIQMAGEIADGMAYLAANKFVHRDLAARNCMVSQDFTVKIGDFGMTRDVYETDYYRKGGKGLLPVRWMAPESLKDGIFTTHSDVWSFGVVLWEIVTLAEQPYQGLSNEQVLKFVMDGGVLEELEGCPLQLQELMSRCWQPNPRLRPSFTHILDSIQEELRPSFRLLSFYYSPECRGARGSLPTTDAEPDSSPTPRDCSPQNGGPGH
CDK9/CycT1, sequence (P50750 whole entry): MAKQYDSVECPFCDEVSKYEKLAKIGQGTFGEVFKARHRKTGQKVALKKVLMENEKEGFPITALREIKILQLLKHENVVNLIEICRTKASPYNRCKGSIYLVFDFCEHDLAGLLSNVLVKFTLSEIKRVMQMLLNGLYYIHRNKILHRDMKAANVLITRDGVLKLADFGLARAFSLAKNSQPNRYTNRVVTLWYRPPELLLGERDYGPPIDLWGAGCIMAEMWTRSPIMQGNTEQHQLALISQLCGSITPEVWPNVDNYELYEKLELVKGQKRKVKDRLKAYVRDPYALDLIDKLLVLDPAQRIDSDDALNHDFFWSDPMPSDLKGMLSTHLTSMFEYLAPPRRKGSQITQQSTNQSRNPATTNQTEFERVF
CDK9/CycT1, sequence (O60563 whole entry partner): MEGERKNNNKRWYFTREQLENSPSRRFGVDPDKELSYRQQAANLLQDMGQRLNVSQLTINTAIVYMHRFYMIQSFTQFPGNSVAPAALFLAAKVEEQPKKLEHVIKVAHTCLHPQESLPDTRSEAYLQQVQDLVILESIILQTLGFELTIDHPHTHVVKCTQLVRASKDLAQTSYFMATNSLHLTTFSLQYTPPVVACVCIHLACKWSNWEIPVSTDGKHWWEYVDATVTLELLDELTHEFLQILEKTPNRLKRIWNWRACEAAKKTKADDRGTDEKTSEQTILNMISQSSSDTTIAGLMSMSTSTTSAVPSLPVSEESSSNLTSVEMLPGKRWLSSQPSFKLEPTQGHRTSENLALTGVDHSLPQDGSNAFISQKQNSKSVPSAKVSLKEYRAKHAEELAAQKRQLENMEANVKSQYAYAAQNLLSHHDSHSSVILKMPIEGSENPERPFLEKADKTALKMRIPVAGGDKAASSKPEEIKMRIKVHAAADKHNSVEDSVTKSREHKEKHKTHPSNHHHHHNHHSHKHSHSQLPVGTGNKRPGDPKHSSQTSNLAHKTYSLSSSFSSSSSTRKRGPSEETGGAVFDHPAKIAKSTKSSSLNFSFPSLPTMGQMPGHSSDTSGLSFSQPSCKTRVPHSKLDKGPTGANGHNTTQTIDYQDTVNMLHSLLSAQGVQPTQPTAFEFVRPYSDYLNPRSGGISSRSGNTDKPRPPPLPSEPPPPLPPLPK
BTK, sequence (Q06187 whole entry): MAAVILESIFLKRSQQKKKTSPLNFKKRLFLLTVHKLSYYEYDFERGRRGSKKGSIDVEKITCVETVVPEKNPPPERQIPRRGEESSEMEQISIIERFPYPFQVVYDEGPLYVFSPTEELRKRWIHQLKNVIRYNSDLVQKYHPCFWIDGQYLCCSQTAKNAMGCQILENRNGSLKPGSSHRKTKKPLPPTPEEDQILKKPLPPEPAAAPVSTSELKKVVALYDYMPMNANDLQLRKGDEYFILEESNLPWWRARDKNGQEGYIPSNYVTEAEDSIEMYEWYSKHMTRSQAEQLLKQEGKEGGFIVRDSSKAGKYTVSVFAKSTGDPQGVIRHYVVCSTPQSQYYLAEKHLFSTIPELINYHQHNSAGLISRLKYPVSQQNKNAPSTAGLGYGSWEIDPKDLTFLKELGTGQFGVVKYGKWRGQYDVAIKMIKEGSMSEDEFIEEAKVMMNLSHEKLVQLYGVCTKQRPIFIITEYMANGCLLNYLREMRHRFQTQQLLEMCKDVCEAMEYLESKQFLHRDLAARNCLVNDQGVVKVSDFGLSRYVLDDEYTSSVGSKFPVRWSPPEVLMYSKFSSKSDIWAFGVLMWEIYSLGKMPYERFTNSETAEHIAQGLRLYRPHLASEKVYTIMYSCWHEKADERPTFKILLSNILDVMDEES
T11 sequence (Q9H3Y6 whole entry): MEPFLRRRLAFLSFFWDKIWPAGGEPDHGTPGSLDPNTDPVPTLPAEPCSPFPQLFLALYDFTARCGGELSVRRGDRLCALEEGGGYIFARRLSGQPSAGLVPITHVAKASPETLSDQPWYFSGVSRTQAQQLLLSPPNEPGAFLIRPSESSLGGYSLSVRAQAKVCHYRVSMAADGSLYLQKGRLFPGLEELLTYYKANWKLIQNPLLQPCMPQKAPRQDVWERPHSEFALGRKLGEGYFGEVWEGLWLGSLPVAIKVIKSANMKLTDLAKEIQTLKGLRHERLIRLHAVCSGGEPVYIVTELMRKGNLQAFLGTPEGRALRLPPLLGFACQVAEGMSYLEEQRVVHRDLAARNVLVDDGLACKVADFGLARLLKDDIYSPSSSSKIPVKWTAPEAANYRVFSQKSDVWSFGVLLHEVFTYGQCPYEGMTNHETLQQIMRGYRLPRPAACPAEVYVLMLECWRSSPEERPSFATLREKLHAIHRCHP
T8 sequence (Q9UQB9 whole entry): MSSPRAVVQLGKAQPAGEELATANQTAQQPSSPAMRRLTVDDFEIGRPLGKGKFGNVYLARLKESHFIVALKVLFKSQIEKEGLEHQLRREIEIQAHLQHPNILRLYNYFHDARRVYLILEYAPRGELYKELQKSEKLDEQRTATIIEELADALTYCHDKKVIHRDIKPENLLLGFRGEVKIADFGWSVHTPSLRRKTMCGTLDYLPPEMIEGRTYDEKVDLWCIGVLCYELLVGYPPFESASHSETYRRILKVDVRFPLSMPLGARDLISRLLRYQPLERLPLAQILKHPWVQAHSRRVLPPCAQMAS

Which inhibition at 0.2 µM (JNK1) does the source give for `C[C@@H](N)COc1ccc(-c2cnc3ccc(N[C@H](C)c4cccc(F)c4)nn23)cc1.O=C(O)CCCCC(=O)O` [DS-6051b] here?
Its inhibition at 0.2 µM is -3.3%.

What about the inhibition at 0.2 µM (HIPK4) of the same compound?
Its inhibition at 0.2 µM is -1.6%.

What about the inhibition at 0.2 µM (KDR) of the same compound?
The inhibition at 0.2 µM was -5.4%.

And the inhibition at 0.2 µM (RET(S891A))?
Its inhibition at 0.2 µM is 2.5%.

And the inhibition at 0.2 µM (DYRK1A)?
Its inhibition at 0.2 µM is -11.4%.

And the inhibition at 0.2 µM (PKD2)?
Its inhibition at 0.2 µM is -17.3%.

What about the inhibition at 0.2 µM (RSK1) of the same compound?
Its inhibition at 0.2 µM is 2.1%.

What about the inhibition at 0.2 µM (FGFR1) of the same compound?
The inhibition at 0.2 µM was 3.4%.

What about the inhibition at 0.2 µM (EPHA3) of the same compound?
The inhibition at 0.2 µM was 2.8%.

What about the inhibition at 0.2 µM (CDK6/CycD3) of the same compound?
The inhibition at 0.2 µM was 2.1%.

And the inhibition at 0.2 µM (SIK)?
The inhibition at 0.2 µM was 8.9%.

And the inhibition at 0.2 µM (QIK)?
Its inhibition at 0.2 µM is -3.9%.

What about the inhibition at 0.2 µM (CDK3/CycE1) of the same compound?
The inhibition at 0.2 µM was -1.2%.

And the inhibition at 0.2 µM (EPHB3)?
The inhibition at 0.2 µM was -0.7%.

What about the inhibition at 0.2 µM (PDGFRβ) of the same compound?
Its inhibition at 0.2 µM is 3.1%.

What about the inhibition at 0.2 µM (AurC) of the same compound?
The inhibition at 0.2 µM was -19%.

What about the inhibition at 0.2 µM (MET) of the same compound?
Its inhibition at 0.2 µM is -6.2%.

And the inhibition at 0.2 µM (CDK9/CycT1)?
Its inhibition at 0.2 µM is -2.9%.

What about the inhibition at 0.2 µM (TNK1) of the same compound?
Its inhibition at 0.2 µM is 12.7%.

What about the inhibition at 0.2 µM (ARG) of the same compound?
The inhibition at 0.2 µM was -0.122%.

And the inhibition at 0.2 µM (EPHA6)?
The inhibition at 0.2 µM was -5.7%.

And the inhibition at 0.2 µM (EPHA7)?
The inhibition at 0.2 µM was -4.9%.

And the inhibition at 0.2 µM (skMLCK)?
Its inhibition at 0.2 µM is -7.1%.

What about the inhibition at 0.2 µM (DYRK1B) of the same compound?
Its inhibition at 0.2 µM is -8.2%.

What about the inhibition at 0.2 µM (SRM) of the same compound?
Its inhibition at 0.2 µM is -3.1%.

What about the inhibition at 0.2 µM (LCK) of the same compound?
The inhibition at 0.2 µM was 0.27%.

What about the inhibition at 0.2 µM (EGFR(d746-750/T790M)) of the same compound?
The inhibition at 0.2 µM was -0.9%.

And the inhibition at 0.2 µM (MINK)?
Its inhibition at 0.2 µM is -2.2%.

And the inhibition at 0.2 µM (EPHA4)?
The inhibition at 0.2 µM was -3.4%.

And the inhibition at 0.2 µM (YES)?
The inhibition at 0.2 µM was 9%.

And the inhibition at 0.2 µM (PKACα)?
The inhibition at 0.2 µM was -7%.

What about the inhibition at 0.2 µM (PKCα) of the same compound?
The inhibition at 0.2 µM was 2%.

What about the inhibition at 0.2 µM (FRK) of the same compound?
The inhibition at 0.2 µM was 8.1%.

What about the inhibition at 0.2 µM (BTK) of the same compound?
Its inhibition at 0.2 µM is 17.9%.

And the inhibition at 0.2 µM (FGFR4)?
The inhibition at 0.2 µM was 3.7%.

And the inhibition at 0.2 µM (HGK)?
Its inhibition at 0.2 µM is -8%.

What about the inhibition at 0.2 µM (CLK1) of the same compound?
Its inhibition at 0.2 µM is 2%.

What about the inhibition at 0.2 µM (JNK2) of the same compound?
The inhibition at 0.2 µM was -5.1%.

And the inhibition at 0.2 µM (LYNb)?
Its inhibition at 0.2 µM is 4.8%.

What about the inhibition at 0.2 µM (IRR) of the same compound?
The inhibition at 0.2 µM was 16.8%.

What about the inhibition at 0.2 µM (BMX) of the same compound?
The inhibition at 0.2 µM was 10%.

And the inhibition at 0.2 µM (FGFR3)?
The inhibition at 0.2 µM was 1.3%.
